Patent publication US20240299376A1, “METHOD OF TREATING A CONDITION USING A […] EFFECTIVE DOSE OF 1-(1-OXO-1,2-DIHYDROISOQUINOLIN-5-YL)-5-(TRIFLUOROMETHYL)-N-(2-(TRIFLUOROMETHYL)PYRIDIN-4-YL)-1H-PYRAZOLE-4-CARBOXAMIDE” (Janssen Pharmaceutica NV, priority 2021, published 2024)

Experiment: Serum concentration after 28 days of oral dosing in male OCI-LY3 tumor-bearing NSG mice
Format: in vivo
Settings: mouse, mean; for concentration at 1 h: 1 h post last dose; for concentration at 2 h: 2 h post last dose; for concentration at 4 h: 4 h post last dose; for concentration at 8 h: 8 h post last dose; for concentration at 12 h: 12 h post last dose; for concentration at 0.25 h: 0.25 h post last dose
Procedure: For study 3, animals were randomly assigned into treatment groups, when the OCI-LY3 mean tumor volume was 164 mm^3 (Day 32 post-tumor cell implantation). Treatment was initiated on the day of randomization (Day 32). After 28 days of treatment on Day 60, serum was collected at 2, 4, and 12 hours post last dose for the bid treated groups or 2, 4 and 24 hours post last dose for qd treated groups in cohorts of 5 mice. Blood was collected from the retro-orbital sinus and submitted for bioanalytical analysis.
Serum samples were collected at 1, 2, 4, 8, and 12 hours post dose (for twice-daily-treated animals) or 24 hours (for once-daily-treated animals).

Q: Which concentration at 1 h (1 mg/kg BID PO 28 days) does the source give for `O=C(Nc1ccnc(C(F)(F)F)c1)c1cnn(-c2cccc3c(=O)[nH]ccc23)c1C(F)(F)F` [Compound A, 1-(1-oxo-1,2-dihydroisoquinolin-5-yl)-5-(trifluoromethyl)-N-[2-(trifluoromethyl)pyridin-4-yl]-1H-pyrazole-4-carboxamide] here?
A: 550 ng/mL

Q: What about the concentration at 2 h (1 mg/kg BID PO 28 days) of the same molecule?
A: 449 ng/mL

Q: What about the concentration at 4 h (1 mg/kg BID PO 28 days) of the same molecule?
A: 526 ng/mL

Q: What about the concentration at 8 h (1 mg/kg BID PO 28 days) of the same molecule?
A: 721 ng/mL

Q: And the concentration at 12 h (1 mg/kg BID PO 28 days)?
A: 307 ng/mL

Q: And the concentration at 0.25 h (3 mg/kg BID PO 28 days)?
A: 1020 ng/mL

Q: And the concentration at 1 h (3 mg/kg BID PO 28 days, N = 2)?
A: 1940 ng/mL

Q: What about the concentration at 2 h (3 mg/kg BID PO 28 days) of the same molecule?
A: 1560 ng/mL

Q: What about the concentration at 4 h (3 mg/kg BID PO 28 days) of the same molecule?
A: 1150 ng/mL

Q: And the concentration at 8 h (3 mg/kg BID PO 28 days, N = 2)?
A: 2680 ng/mL

Q: What about the concentration at 12 h (3 mg/kg BID PO 28 days) of the same molecule?
A: 1020 ng/mL

Q: And the concentration at 0.25 h (10 mg/kg BID PO 28 days)?
A: 4050 ng/mL

Q: What about the concentration at 1 h (10 mg/kg BID PO 28 days) of the same molecule?
A: 5080 ng/mL

Q: And the concentration at 2 h (10 mg/kg BID PO 28 days)?
A: 4600 ng/mL

Q: And the concentration at 4 h (10 mg/kg BID PO 28 days)?
A: 6250 ng/mL

Q: What about the concentration at 8 h (10 mg/kg BID PO 28 days) of the same molecule?
A: 5500 ng/mL

Q: And the concentration at 12 h (10 mg/kg BID PO 28 days)?
A: 4170 ng/mL

Q: What about the concentration at 0.25 h (30 mg/kg BID PO 28 days) of the same molecule?
A: 5970 ng/mL

Q: What about the concentration at 1 h (30 mg/kg BID PO 28 days) of the same molecule?
A: 11400 ng/mL

Q: And the concentration at 2 h (30 mg/kg BID PO 28 days)?
A: 12300 ng/mL

Q: What about the concentration at 4 h (30 mg/kg BID PO 28 days) of the same molecule?
A: 10400 ng/mL

Q: And the concentration at 8 h (30 mg/kg BID PO 28 days)?
A: 14700 ng/mL

Q: What about the concentration at 12 h (30 mg/kg BID PO 28 days) of the same molecule?
A: 9000 ng/mL

Q: What about the concentration at 1 h (60 mg/kg QD PO 28 days) of the same molecule?
A: 9270 ng/mL

Q: What about the concentration at 2 h (60 mg/kg QD PO 28 days) of the same molecule?
A: 16000 ng/mL

Q: And the concentration at 4 h (60 mg/kg QD PO 28 days)?
A: 11400 ng/mL

Q: And the concentration at 24 h (60 mg/kg QD PO 28 days, 24 h post last dose)?
A: 2510 ng/mL

Q: What about the concentration at 0.25 h (100 mg/kg BID PO 28 days) of the same molecule?
A: 16500 ng/mL

Q: And the concentration at 1 h (100 mg/kg BID PO 28 days)?
A: 21200 ng/mL

Q: And the concentration at 2 h (100 mg/kg BID PO 28 days)?
A: 21600 ng/mL

Q: And the concentration at 4 h (100 mg/kg BID PO 28 days)?
A: 12800 ng/mL

Q: What about the concentration at 8 h (100 mg/kg BID PO 28 days) of the same molecule?
A: 20500 ng/mL

Q: And the concentration at 12 h (100 mg/kg BID PO 28 days)?
A: 10300 ng/mL
